Data: paper PMC12469161, “Anti-cancer compound screening identifies Aurora Kinase A inhibition as a means to favor CRISPR/Cas9 gene correction over knock-out” (PLOS One, 2025)
Read-outs that look alike come from different tables or passages of the source.

Legend:
[1] = test system: HEK293T-eGFP cells; assay: MTT cytotoxicity assay, 72 hours; assay type: cell-based
Protocol: Cells were cultured for 16–24 hours under standard culturing conditions (5% CO2, 37 °C). […] All dose ranges were added in duplicate, followed by 72 hours of incubation. Cell viability was determined using a tetrazolium based metabolic activity assay. Briefly, 5 µL of 3-(4.5-dimethylthiazol-2-yl)-2,5-diphenyltetrazolium bromide (MTT) solution (5 mg/mL MTT in sterile PBS) was added per well, and the microplates were incubated for 4 hours at 37°C and 5% CO2 in a cell culture incubator. Next, 40 µL of 10% SDS/0.01 M HCl was added per well, and the microplates were incubated for 24–72 hours at 37°C and 5% CO2 in a cell culture incubator. Subsequently the absorbance at 570 nm and background absorbance at 720 nm were measured using the Spectramax i3x (Molecular Devices, San Jose, USA). Subsequently, the absorbance values at 720 nm were subtracted from the absorbance values at 570 nm, and the corresponding values were used to plot dose-response curves.
The data was normalized to the DMSO-treated cells (defined as 100% viability) and the empty controls (defined as 0% viability).

[2] = test system: eGFP locus in HEK293T-eGFP cells (HDR vs NHEJ); assay: CRISPR gene-editing outcome (eGFP to BFP conversion, flow cytometry) with CRISPR-Cas9 LNP; assay type: cell-based; details: for effect on relative HDR in the compound screen: up to three dosages based on IC50, single measurements; for preferential activation of HDR over NHEJ in hit validation: narrowed dose range, triplicate, vs LNP only; for effect on the NHEJ and HDR outcomes: validated hits, Fig 2B
Protocol: (§1) Compounds were assessed in three dosages to assess the effects on gene-editing efficacy. […] Cells were incubated with these compounds for 24 hours prior to LNP addition. LNP were added to all wells at a final concentration of 20 nM SpCas9 to achieve robust genome editing. After 24 hours of co-incubation, medium was refreshed and cells were transferred to a 48 well plate for further culturing. Six days after adding compounds, cells were processed for flow cytometric analysis of the gene knock-out and gene-correction efficiencies. Briefly, a ssDNA template was used carrying two nucleotide mutations to convert the eGFP sequence to that of a blue fluorescent protein (BFP), as well as mutating the PAM sequence to ensure robust HDR. The sgRNA spacer sequence was 5’-[…]-3’, and the HDR template sequence was 5’-[…]-3’.
Flow cytometry using the BD FACS Canto II (Becton Dickinson) was used to determine cells undergoing NHEJ (eGFP and BFP negative population) and HDR (eGFP negative, BFP positive). Data analysis was performed using Flowlogic (version 8.7). Graphpad PRISM (version 9.3.1) was used for statistical analysis and preparing graphs.
(§2) The percentage of HDR relative to total gene editing in a given cell population (hereafter named Relative HDR (% of edited cells) was calculated by dividing the absolute HDR population by the sum of gene-edited cells found in the BFP+ and eGFP- gates. Absolute HDR (% of all cells) and Absolute NHEJ (% of all cells) were analyzed where appropriate. The gating strategy is given in S1 Fig in S1 File.

[3] = test system: Hepa 1–6-eGFP cells; assay: MTS cell viability and morphology, 5 days; assay type: cell-based, murine; details: 0.3 µM, after 5 days, vs untreated control
Protocol: A narrower cytotoxicity range was determined by exposing cells to 0.1–1 µM of the tested compounds. 48 hours after treatment started, cells were washed and harvested using medium and one third of the volume was transferred to a fresh 96 well plate, analogous to how cells are treated during gene editing experiments. Subsequently, cells were cultured for another 3–5 days. In the case of 5 days, one third of the cells was again transferred into a fresh 96-well plate on day 3 to allow enough space for logarithmic cell growth during the additional incubation time. Cell viability was determined by the Promega One Step MTS assay (Promega, Madison, USA) using the manufacturer’s specifications. Relative cell viability for the Hepa 1–6-eGFP cells was calculated by normalizing the compound conditions to controls treated with DMSO only or DMSO plus gene editing formulations. For the HEK293T cells, the absolute absorbance at […] was used as it was more representative of the relative cell viability between samples.
Cell morphology was assessed using the Nikon Eclipse Ti2 microscope (Nikon Europe, Amstelveen, The Netherlands). Pictures were acquired at 10x magnification with a Nikon DSLR 10 camera using the same imaging settings within each experiment set (Nikon Europe, Amstelveen, The Netherlands).

[4] = test system: eGFP locus in Hepa 1–6-eGFP cells (HDR vs NHEJ); assay: CRISPR gene-editing outcome (eGFP to BFP, flow cytometry) with ProDeliverIN CRISPR; assay type: cell-based, murine; details: Hepa 1–6-eGFP
Source text: Lipid nanoparticles (LNP) carrying SpCas9, sgRNA and HDR template DNA were formulated using the components and molecular ratios described previously. 1,1′-((2-(4-(2-((2-(bis(2-hydroxydodecyl)amino)ethyl)(2-hydroxydodecyl)amino)ethyl)piperazin-1-yl)ethyl)azanediyl)bis(dodecan-2-ol) (C12-200) was acquired from CordonPharma (Plankstadt, Germany) and used as the ionizable lipid in the formulation. 1,2-dioleoyl-sn-glycero-3-phosphoethanolamine (DOPE) was acquired from Lipoid GmbH (Steinhausen, Switzerland), Cholesterol and 1,2-dimyristoyl-rac-glycero-3-methoxypolyethylene glycol-2000 (PEG-DMG) were acquired from Sigma-Aldrich, and 1,2-dioleoyl-3-trimethylammonium-propane (DOTAP) was acquired from Merck (Darmstadt, Germany). LNP were produced using microfluidic mixing with the Dolomite Microfluidics system (Dolomite Microfluidics, Royston, United Kingdom) and herring-bone micromixer chip with hydrophilic coating (Dolomite Microfluidics, catalogue number 3200401). A total flow rate of 1.5 mL/min and flow rate ratio of 2:1 were used between an aqueous outer phase containing SpCas9, sgRNA and HDR template in nuclease free water, and the lipids in 100% ethanol in the inner phase, respectively. The resulting LNP were diluted 4 times in Dulbecco’s PBS (Sigma-Aldrich). In the experiments using the Hepa 1–6 eGFP cells, ProDeliverIN CRISPR (OZ Biosciences, San Diego, USA) was used as reported previously.
as §1
Flow cytometry using the BD FACS Canto II (Becton Dickinson) was used to determine cells undergoing NHEJ (eGFP and BFP negative population) and HDR (eGFP negative, BFP positive). […]
as §2

[5] = 72 h, HEK293T-eGFP cells, 3 days of incubation, MTT, read-out: IC50
[6] = HEK293T-eGFP cells, 3 days of incubation, MTT, read-out: IC50

Cc1ncc(Cl)cc1NCc1ccc(C(=O)N[C@@H](CC2CCCC2)C(=O)NC2CC2)s1 [GSK2830371]
IC50 [1, 5]: > 10000 nM

C/C=C1\NC(=O)[C@H]2CSSCC/C=C/[C@H](CC(=O)N[C@H](C(C)C)C(=O)N2)OC(=O)[C@H](C(C)C)NC1=O [Romidepsin]
effect on relative HDR in the compound screen [2]: strongly inhibited HDR
IC50 ([1]; 72 h): 16.4 nM

CN(C)C/C=C/C(=O)Nc1ccc(C(=O)Nc2cccc(Nc3ncc(Cl)c(-c4c[nH]c5ccccc45)n3)c2)cc1 [THZ1]
IC50 [1, 6]: 37.1 nM

C=CCn1c(=O)c2cnc(Nc3ccc(N4CCN(C)CC4)cc3)nc2n1-c1cccc(C(C)(C)O)n1 [Adavosertib]
IC50 [1, 5]: 227 nM

CN(C)C(=O)c1cc2cnc(Nc3ccc(N4CCNCC4)cn3)nc2n1C1CCCC1 [Ribociclib]
IC50 [1, 5]: > 10000 nM

Oc1nc(-c2ccc(C(F)(F)F)cc2)nc2c1CSCC2 [XAV-939]
IC50 [1, 5]: > 10000 nM

Cc1sc2c(c1C)C(c1ccc(Cl)cc1)=N[C@@H](CC(=O)O)c1nnc(C)n1-2 [JQ-1 COOH]
IC50 [1, 6]: > 10000 nM

CNCc1ccc(-c2[nH]c3cc(F)cc4c3c2CCNC4=O)cc1 [Rucaparib]
preferential activation of HDR over NHEJ in hit validation [2]: strong dose-dependent preferential activation of HDR over NHEJ
effect on the NHEJ and HDR outcomes [2]: inhibited NHEJ and improved HDR
IC50 [1, 5]: > 10000 nM

CCN1CCN(Cc2ccc(Nc3ncc(F)c(-c4cc(F)c5nc(C)n(C(C)C)c5c4)n3)nc2)CC1 [Abemaciclib]
IC50 [1, 5]: 1070 nM

CC[C@H](Nc1nc(NCc2cnc(C)cc2C)c2ncn(C(C)C)c2n1)[C@@H](C)O [CYC065]
IC50 [1, 5]: 255 nM

O=C(/C=C/c1cccc(S(=O)(=O)Nc2ccccc2)c1)NO [Belinostat]
preferential activation of HDR over NHEJ in hit validation [2]: strong dose-dependent preferential activation of HDR over NHEJ
effect on the NHEJ and HDR outcomes [2]: increased both NHEJ and HDR
IC50 [1, 5]: 1100 nM

C[C@@H]1CN(CC(=O)Nc2ccc3c(c2)Cc2cccc(-c4cc(=O)cc(N5CCOCC5)o4)c2S3)C[C@H](C)O1 [KU-60019]
IC50 [1, 5]: > 10000 nM

Cc1sc2c(c1C)C(c1ccc(Cl)cc1)=N[C@@H](CC(=O)Nc1ccc(O)cc1)c1nnc(C)n1-2 [Birabresib]
IC50 [1, 5]: 540 nM

COc1ccc(Cn2ccc3ccc(C(=O)NO)cc32)cc1 [PCI-34051]
IC50 [1, 6]: > 10000 nM

O=C(NC1CCNCC1)c1[nH]ncc1NC(=O)c1c(Cl)cccc1Cl [AT7519]
IC50 [1, 5]: 438 nM

CN(C)C/C=C/C(=O)Nc1ccc(C(=O)N2CCC[C@@H](Nc3ncc(Cl)c(-c4c[nH]c5ccccc45)n3)C2)cc1 [THZ531]
IC50 [1, 5]: 352 nM

Nc1ccccc1NC(=O)c1ccc(CNC(=O)OCc2cccnc2)cc1 [Entinostat]
effect on relative HDR in the compound screen [2]: did not show the same effect
IC50 [1, 5]: 3560 nM

C[C@@H](Oc1cc(-n2cnc3ccc(CN4CCN(C)CC4)cc32)sc1C(N)=O)c1ccccc1C(F)(F)F [GSK461364]
IC50 [1, 5]: 8.35 nM

Karonudib
IC50 [1, 6]: 450 nM

NS(=O)(=O)OC[C@@H]1C[C@@H](n2ccc3c(N[C@H]4CCc5ccccc54)ncnc32)C[C@@H]1O [Pevonedistat]
IC50 [1, 5]: 4740 nM

Cc1sc2c(c1C)C(c1ccc(Cl)cc1)=N[C@@H](CC(N)=O)c1nnc(C)n1-2 [CPI-203]
IC50 [1, 6]: 651 nM

C[C@]12CCCN1CC1=NNC(=O)c3cc(F)cc4[nH]c2c1c34 [Pamiparib]
IC50 [1, 5]: > 10000 nM

Cc1cc(C)cc(C(=O)NOCCCCCC(=O)NO)c1 [LMK-235]
IC50 [1, 6]: 1790 nM

CNCc1ccc(-c2cc(-c3nc(-c4ccc(S(=O)(=O)C(C)C)cc4)cnc3N)on2)cc1 [Berzosertib]
IC50 [1, 5]: 335 nM

C[C@@H](NC(=O)c1ncnc(N)c1Cl)c1ncc(C(=O)Nc2cc(C(F)(F)F)c(Cl)cn2)s1 [TAK-580]
IC50 [1, 5]: > 10000 nM

CO[C@@H](C(=O)N1Cc2n[nH]c(NC(=O)c3ccc(N4CCN(C)CC4)cc3)c2C1)c1ccccc1 [Danusertib, danusertib]
cell morphology by microscopy [3]: not disrupted
dosage with overall high efficacy and manageable toxicity [4]: 0.3 µM

COc1cccc(OCCCN)c1-c1cc(Nc2cnc(C#N)cn2)n[nH]1 [Prexasertib]
IC50 [1, 5]: 5.33 nM

CCn1cc(-c2cccc(C(F)(F)F)c2)c2sc(C(=N)NC3CCS(=O)(=O)CC3)cc2c1=O [I-BRD9]
IC50 [1, 6]: 8940 nM

Nc1cc(F)ccc1NC(=O)c1ccc(CNC(=O)/C=C/c2cccnc2)cc1 [Epidaza]
effect on relative HDR in the compound screen [2]: did not show an effect towards improving HDR
IC50 [1, 5]: > 10000 nM

CC[C@@H]1C(=O)N(C)c2cnc(Nc3ccc(C(=O)N[C@H]4CC[C@H](N5CCN(CC6CC6)CC5)CC4)cc3OC)nc2N1C(C)C [Volasertib]
IC50 [1, 5]: 24.5 nM

CC(C)c1c(-c2ccccc2)[nH]c2c(C#N)cnn2c1=O [CPI-455]
IC50 [1, 6]: > 10000 nM

CC(=O)O[C@H]1C(=O)[C@@]2(C)[C@H]([C@H](OC(=O)c3ccccc3)[C@]3(O)C[C@H](OC(=O)[C@H](O)[C@@H](NC(=O)c4ccccc4)c4ccccc4)C(C)=C1C3(C)C)[C@]1(OC(C)=O)CO[C@@H]1C[C@@H]2O [Paclitaxel]
IC50 [1, 5]: 3.12 nM

C[C@@H]1COCCN1c1cc(C2([S@](C)(=N)=O)CC2)nc(-c2cc[nH]c3nccc2-3)n1 [Ceralasertib]
IC50 [1, 5]: 1840 nM

O=c1cc(-c2cccc3c2Sc2ccccc2S3)oc(N2CCOCC2)c1 [KU-55933]
IC50 [1, 5]: > 10000 nM

CCn1cc(-c2ccnc3[nH]c(-c4cccc(CN(C)C)c4)cc23)c(-c2ccc(NC(=O)N(C)C)cc2)n1 [GSK1070916]
effect on relative HDR in the compound screen [2]: did not show an effect toward relative HDR activation
IC50 [1, 5]: 1390 nM

O=C(c1cc(Cc2n[nH]c(=O)c3ccccc23)ccc1F)N1CCN(C(=O)C2CC2)CC1 [Olaparib]
IC50 [1, 5]: > 10000 nM

Cc1[nH]c2ccccc2c1CCNCc1ccc(/C=C/C(=O)NO)cc1 [Panobinostat]
effect on relative HDR in the compound screen [2]: did not show the same effect
IC50 [1, 5]: 30.6 nM

CNc1nc(-c2nc3ccc(N4CCN(C)CC4)cc3n2Cc2ccccc2)cn2c(C)nnc12 [BI 894999]
IC50 [1, 5]: 582 nM
